Assay results published in US20170362498A1, “USE OF MGDA AS ADDITIVE IN PROCESSES FOR RECOVERING CRUDE OIL AND/OR GAS FROM SUBTERRANEAN FORMATIONS” (BASF SE, priority 2014, published 2017).

What was measured:
[1] = Determination of stability against strong alkali (solid NaOH), visual inspection; conditions: for Appearance of test solutions after 96 h of storage: 25 g of 40% by weight aqueous solution, ambient temperature; for Solubility / appearance with increasing NaOH amounts (summary): 40% by weight aqueous solution, 0 to 2.5 g solid NaOH added, up to 96 hours
[2] = Determination of solubility in water (Tsol); format: physicochemical; conditions: minimum temperature for forming a kinetically stable (clear) 50% by weight solution in water; cooled 30° C./h to precipitation, reheated 1° C./h
Procedure: In each case, the solubility was calculated to refer to pure MGDA, without hydrate water.
The solubility of inventive mixtures and of comparison experiments was determined with an apparatus that allowed heating and cooling down liquid solutions. […] Then, the slurry of crystals of MGDA so obtained was again heated at a speed of 1° C./h until a clear solution was obtained. The slurry/solution was checked for solid particles by visible light scattering detection.
The above tests furnished the minimum temperature, Tsol, for forming a kinetically stable 50% by weight solution of the respective mixture of isomers. A higher temperature Tsol correlates with a lower solubility at ambient temperature.

Row | SMILES | Appearance of test solutions after 96 h of storage ([1]; NaOH added 1.5 g (6 wt. % vs. 40% solution), * = after 48 hours, listed as MGDA: 50% ee) | Appearance of test solutions after 96 h of storage ([1]; NaOH added 2.0 g (8 wt. % vs. 40% solution), * = after 48 hours, listed as MGDA: 50% ee) | Appearance of test solutions after 96 h of storage ([1]; NaOH added 2.5 g (10 wt. % vs. 40% solution), ** = immediately after addition of NaOH, listed as MGDA: 50% ee) | Solubility / appearance with increasing NaOH amounts (summary) ([1]; listed as mixture according to the present invention (50% ee)) | Tsol [2] [°C] | Appearance of test solutions after 96 h of storage ([1]; NaOH added 0 g (0 wt. % vs. 40% solution)) | Appearance of test solutions after 96 h of storage ([1]; NaOH added 0.5 g (2 wt. % vs. 40% solution)) | Appearance of test solutions after 96 h of storage ([1]; NaOH added 1.0 g (4 wt. % vs. 40% solution)) | Appearance of test solutions after 96 h of storage ([1]; NaOH added 1.5 g (6 wt. % vs. 40% solution), * = after 48 hours, listed as Racemic MGDA) | Appearance of test solutions after 96 h of storage ([1]; NaOH added 2.0 g (8 wt. % vs. 40% solution), * = after 48 hours, listed as Racemic MGDA) | Appearance of test solutions after 96 h of storage ([1]; NaOH added 2.5 g (10 wt. % vs. 40% solution), ** = immediately after addition of NaOH, listed as Racemic MGDA) | Solubility / appearance with increasing NaOH amounts (summary) ([1]; listed as racemic MGDA)
1 | CC(C(=O)O)N(CC(=O)O)CC(=O)O (stereo not drawn) [ee value 50.0, methyl glycine diacetic acid] | clear liquid | clear liquid | clear liquid | remains clear | – | – | – | – | – | – | – | –
2 | CC(C(=O)O)N(CC(=O)O)CC(=O)O (stereo not drawn) [ee value zero, methyl glycine diacetic acid] | – | – | – | – | 103.8 | clear liquid | clear liquid | clear liquid | turbid* liquid | turbid* liquid | turbid, precipitate** | decreases with increasing NaOH amounts
